Test results taken from ChEMBL document CHEMBL4316618, “Synthesis and pharmacological evaluation of novel arylpiperazine oxicams derivatives as potent analgesics without ulcerogenicity” (Bioorg Med Chem, 2019).

Legend:
Mus musculus [1] = experiment: Analgesic activity in formalin-induced nociception Albino Swiss CD-1 mouse model assessed as time spent on licking formalin injected hind paw during neurogenic phase at 5 mg/kg, ip pretreated for 30 mins followed by formalin induction measured up to 5 mins (reference value: 60.23 +/- 5.12 s); assay type: functional
Mus musculus [2] = experiment: Analgesic activity in formalin-induced nociception Albino Swiss CD-1 mouse model assessed as time spent on licking formalin injected hind paw during neurogenic phase at 10 mg/kg, ip pretreated for 30 mins followed by formalin induction measured up to 5 mins (reference value: 60.23 +/- 5.12 s); assay type: functional
Mus musculus [3] = experiment: Analgesic activity in formalin-induced nociception Albino Swiss CD-1 mouse model assessed as time spent on licking formalin injected hind paw during neurogenic phase at 20 mg/kg, ip pretreated for 30 mins followed by formalin induction measured up to 5 mins (reference value: 60.23 +/- 5.12 s); assay type: functional
Mus musculus [4] = experiment: Analgesic activity in ip dosed formalin-induced nociception Albino Swiss CD-1 mouse model assessed as reduction in time spent on licking formalin injected hind paw during neurogenic phase pretreated for 30 mins followed by formalin induction measured up to 5 mins; assay type: functional; conditions: Swiss CD-1, ip
Mus musculus [5] = experiment: (§1) Analgesic activity in formalin-induced nociception Albino Swiss CD-1 mouse model assessed as time spent on licking formalin injected hind paw during inflammatory phase at 5 mg/kg, ip pretreated for 30 mins followed by formalin induction measured after 15 to 30 mins (reference value: 138.5 +/- 8.55 s); assay type: functional
Mus musculus [6] = experiment: as §1, with “at 10” for “at 5”; assay type: functional
Mus musculus [7] = experiment: as §1, with “at 20” for “at 5”; assay type: functional
Mus musculus [8] = experiment: Analgesic activity in ip dosed formalin-induced nociception Albino Swiss CD-1 mouse model assessed as reduction in time spent on licking formalin injected hind paw during inflammatory phase pretreated for 30 mins followed by formalin induction measured after 15 to 30 mins; assay type: functional; conditions: Swiss CD-1, ip
Mus musculus [9] = experiment: Potency index, ratio of piroxicam ED50 to test compound ED50 for analgesic activity in ip dosed formalin-induced nociception Albino Swiss CD-1 mouse model assessed as reduction in time spent on licking formalin injected hind paw during inflammatory phase; assay type: functional
Mus musculus [10] = experiment: Sedative activity in ip dosed Albino Swiss CD-1 mouse assessed as effect on locomotor activity by measuring reduction in number of light beam crossings treated for 30 mins measured for next 30 mins; assay type: organism-based; conditions: in vivo, 0.5 h
[11] = Neurotoxicity in Albino Swiss CD-1 mouse assessed as motor impairment at 20 mg/kg, ip measured for 1 min at 6 to 24 rpm by rotarod test; assay type: toxicity, organism-based; conditions: in vivo
[12] = Acute toxicity in Albino Swiss CD-1 mouse assessed as mortality at 250 mg/kg, ip measured after 72 hrs relative to control; assay type: organism-based; conditions: in vivo
[13] = Acute toxicity in Albino Swiss CD-1 mouse assessed as mortality at 500 mg/kg, ip measured after 72 hrs relative to control; assay type: organism-based; conditions: in vivo
[14] = Acute toxicity in Albino Swiss CD-1 mouse assessed as mortality at 1000 mg/kg, ip measured after 72 hrs relative to control; assay type: organism-based; conditions: in vivo
[15] = Acute toxicity in ip dosed Albino Swiss CD-1 mouse measured for 24 hrs; assay type: organism-based; conditions: in vivo
[16] = Acute toxicity in Albino Swiss CD-1 mouse assessed as mortality at 2000 mg/kg, ip measured after 72 hrs relative to control; assay type: organism-based; conditions: in vivo
[17] = Ulcerogenic activity in Wistar (Krf:(WI) WU) rat assessed as change in gastric mucosa at 25 mg/kg measured after 24 hrs by stereo microscopic analysis; assay type: toxicity, organism-based; conditions: in vivo

SMILES | Time (Mus musculus [1]) [s] | Time (Mus musculus [2]) [s] | Time (Mus musculus [3]) [s] | ED50 (Mus musculus [4]) [mg/kg] | Time (Mus musculus [5]) [s] | Time (Mus musculus [6]) [s] | Time (Mus musculus [7]) [s] | ED50 (Mus musculus [8]) [mg/kg] | Ratio ED50 (Mus musculus [9]) | ED50 (Mus musculus [10]) [mg/kg] | Activity [11] | mortality at 72 h [12] [%] | mortality at 72 h [13] [%] | mortality at 72 h [14] [%] | LD50 at 24 h [15] [mg/kg] | mortality at 72 h [16] [%] | Activity [17]
O=C(C1=C(O)c2ccccc2S(=O)(=O)N1CC(=O)N1CCN(c2ccccc2)CC1)c1ccccc1 | 41.17 | 34.29 | 25.83 | 13.9 | 81.13 | 68.86 | 49.71 | 8.85 | 2 - 5 | 31.55 | Non-Toxic | 16.7 | 50 | 83.3 | 500 |  | 
Cc1ccc(C(=O)C2=C(O)c3ccccc3S(=O)(=O)N2CCCN2CCN(c3ccccc3)CC2)cc1 | 59 | 51.17 | 47.67 |  | 62.57 | 55.86 | 35.33 | 4.01 | 2 - 5 | 35.42 | Non-Toxic |  |  |  | > 2000 | 0 | 
Cc1ccc(C(=O)C2=C(O)c3ccccc3S(=O)(=O)N2CC(=O)N2CCN(c3ccccc3)CC2)cc1 | 44.86 | 39.75 | 31 | 22.8 | 90 | 46.86 | 28.86 | 7.22 | 2 - 5 | 40.34 | Non-Toxic | 0 | 66.7 | 83.3 | 569 |  | Non-Toxic
O=C(C1=C(O)c2ccccc2S(=O)(=O)N1CCCN1CCN(c2cccc(C(F)(F)F)c2)CC1)c1ccccc1 | 51.5 | 42.86 | 35.11 | 27 | 78.5 | 59.17 | 48.6 | 7.14 | 2 - 5 | 38.41 | Non-Toxic |  |  |  | > 2000 | 0 | 
O=C(C1=C(O)c2ccccc2S(=O)(=O)N1CC(=O)N1CCN(c2ncccn2)CC1)c1ccc(Br)cc1 | 44.5 | 31.38 | 22.44 | 11.9 | 81.63 | 63.75 | 48.6 | 8.25 | 2 - 5 | 29.89 | Non-Toxic |  |  |  | > 2000 | 0 | Non-Toxic
